Test results published in paper PMC4915685 (PLoS ONE, 2016).

Experiments:
[1] = system: human plasma protein; experiment: Plasma protein binding; format: in vitro ADME; conditions: over the range of 0.1 to 10 μg/mL (unpublished results)
[2] = set-up: method as in earlier work; conditions: 100 mg single dose, 168 hours after administration, Japanese healthy volunteers; cited from earlier work
[3] = molecular target: T1, prolyl endopeptidase (PEP) (Rattus norvegicus, UniProt O70196); experiment: PEP inhibition assay; format: biochemical
T1 construct: were prepared from rat kidney and brain, respectively; from tissue; host or cells: rat brain
T1 sequence (O70196 1-710): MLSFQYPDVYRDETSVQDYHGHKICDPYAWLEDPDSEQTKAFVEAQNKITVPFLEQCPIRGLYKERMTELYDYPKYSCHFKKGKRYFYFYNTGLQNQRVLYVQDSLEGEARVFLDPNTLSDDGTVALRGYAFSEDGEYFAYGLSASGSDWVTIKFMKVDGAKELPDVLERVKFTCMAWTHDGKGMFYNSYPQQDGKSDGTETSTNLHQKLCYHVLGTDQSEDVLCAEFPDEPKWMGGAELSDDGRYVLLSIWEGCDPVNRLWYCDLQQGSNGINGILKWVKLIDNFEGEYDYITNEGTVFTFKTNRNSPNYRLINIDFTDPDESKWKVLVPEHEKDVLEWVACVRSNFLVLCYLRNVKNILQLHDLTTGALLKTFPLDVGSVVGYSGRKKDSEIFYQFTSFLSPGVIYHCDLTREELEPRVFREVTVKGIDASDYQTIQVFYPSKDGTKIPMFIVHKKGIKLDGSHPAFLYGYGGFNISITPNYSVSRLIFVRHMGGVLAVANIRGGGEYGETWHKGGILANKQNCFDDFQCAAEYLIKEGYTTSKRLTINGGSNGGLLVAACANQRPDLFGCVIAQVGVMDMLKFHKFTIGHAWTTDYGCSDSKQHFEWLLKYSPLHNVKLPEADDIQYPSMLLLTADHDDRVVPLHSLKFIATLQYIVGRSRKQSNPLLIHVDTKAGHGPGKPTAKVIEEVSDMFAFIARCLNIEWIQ

[4] = system: T2DM patients; conditions: cited from earlier work
[5] = molecular target: T2, dog plasma DPP-4 activity (Canis lupus familiaris, UniProt A0A8I3Q2I8); experiment: Inhibition of plasma DPP-4 activity, dog plasma (GP-pNA); format: biochemical
T2 construct: tissue Kitayama Labes Co., Ltd. (animals); host or cells: beagle dog plasma
T2 sequence (A0A8I3Q2I8 1-765): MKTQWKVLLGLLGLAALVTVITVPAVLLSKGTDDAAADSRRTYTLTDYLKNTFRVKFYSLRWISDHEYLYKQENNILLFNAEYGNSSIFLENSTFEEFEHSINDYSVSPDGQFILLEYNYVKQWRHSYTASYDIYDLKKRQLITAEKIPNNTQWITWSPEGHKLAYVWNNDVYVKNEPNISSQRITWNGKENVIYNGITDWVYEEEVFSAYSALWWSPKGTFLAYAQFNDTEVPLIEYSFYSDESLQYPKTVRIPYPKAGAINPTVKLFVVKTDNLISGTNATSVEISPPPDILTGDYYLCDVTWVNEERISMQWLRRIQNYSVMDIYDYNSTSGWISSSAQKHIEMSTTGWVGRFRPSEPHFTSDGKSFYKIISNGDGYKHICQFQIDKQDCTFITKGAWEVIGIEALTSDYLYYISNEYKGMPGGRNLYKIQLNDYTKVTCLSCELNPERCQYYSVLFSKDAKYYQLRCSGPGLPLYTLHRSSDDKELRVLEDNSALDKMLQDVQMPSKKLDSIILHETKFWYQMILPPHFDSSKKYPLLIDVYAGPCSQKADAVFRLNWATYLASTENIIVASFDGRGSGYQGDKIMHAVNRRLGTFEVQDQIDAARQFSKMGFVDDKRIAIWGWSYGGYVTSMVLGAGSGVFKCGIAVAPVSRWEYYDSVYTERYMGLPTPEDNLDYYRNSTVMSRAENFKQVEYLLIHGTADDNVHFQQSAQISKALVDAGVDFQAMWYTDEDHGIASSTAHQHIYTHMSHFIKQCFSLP
Description: Male Sprague–Dawley rats (7 weeks old, n = 30) and male beagle dogs (2–5 years old, n = 3) were purchased from CLEA Japan (Tokyo, Japan) and Kitayama Labes Co., Ltd. (Nagano, Japan), respectively. […] Rat blood samples were taken from abdominal vein under ether inhalation anesthesia in anesthetized rats before euthanasia by exsanguination. Dog blood samples were collected from anterior limb veins in conscious dogs that were restrained in a retainer. […] Plasma samples were prepared and stored at -80°C before use.

Compound | binding to human plasma protein [1] | plasma trelagliptin concentration [mean (SD)] [2] | IC50 [3] | safety in clinical studies ([4]; clinical studies) | efficacy in terms of reduction of HbA1c versus alogliptin 25 mg daily dosing ([4]; trelagliptin 100 mg weekly dosing, T2DM patients) | IC50 [5]
Cn1c(=O)cc(N2CCC[C@@H](N)C2)n(Cc2ccccc2C#N)c1=O [alogliptin, 2-[6-(3(R)-aminopiperidin-1-yl)-3-methyl-2,4-dioxo-3,4-dihydro-2H-pyrimidin-1-ylmethyl]benzonitrile, reference compound] | 28.2–32.3% | – | – | – | – | –
Cn1c(=O)cc(N2CCC[C@@H](N)C2)n(Cc2cc(F)ccc2C#N)c1=O [trelagliptin, 2-[6-(3(R)-aminopiperidin-1-yl)-3-methyl-2,4-dioxo-3,4-dihydro-2H-pyrimidin-1-ylmethyl]-4-fluorobenzonitrile] | 22.1–27.6% | 2.12 (0.679) ng/mL | > 100 µM | no major safety concerns | non-inferior | 6.2 nM
